Laboratory results from patent US6440387B1, “Methods for determining risk of Alzheimer's disease” (Children's Medical Center Corporation, priority 1998, dated 2002).

Columns and labels:
[1] = tested on: Aβ production by human cortical neurons; experiment: Effect of HMG CoA reductase inhibitors on Aβ levels in human cortical neuronal cultures; assay type: cell-based; settings: 100 μM, 48 hours
Method: Busciglio et al., (1993) Proc. Nat. Acad. Sci. 90, 2092-2096, described the production of Aβ by human cortical neurons in culture . To determine whether cholesterol can affect the production of Aβ, primary human brain cultures were established from the cortex of 16-20 week fetal abortuses, and the neurons incubated in the absence or presence of very low density lipoprotein (VLDL), low density lipoprotein (LDL) or high density lipoprotein (HDL) particles isolated from human plasma. These lipoprotein particles are the physiological vehicles for the transport of cholesterol to cells. The effects of the different lipoprotein particles on the levels of Aβ in the human cortical cultures was determined. The human cortical cultures were maintained in serum-free Dulbecco's Modified Eagle's Medium (DMEM) with N2 supplements (a serum-free supplement that supports neuronal viability). The medium was then changed to the same medium (controls) or medium supplemented with VLDL, LDL, or HDL particles. After incubation for 48-72 hours, Aβ was measured by immunoprecipitation of the culture medium with a polyclonal antibody to Aβ (B12), followed by Western blotting with a mohoclonal antibody to Aβ (6E10). […] The bands corresponding to the 40 and 42 amino acid form of Aβ were analyzed quantitatively using a computer software program. […]

Aβ levels in the brain = experiment: Dietary cholesterol and Aβ levels in rat cerebral cortex; assay type: in vivo; settings: 20 month old rats, high cholesterol diet (5% cholesterol) vs low cholesterol diet (0.1% cholesterol), 10 weeks
Method: These experiments were performed on 20 month old rats. The rats were fed a low cholesterol diet (0.1% cholesterol) or a high cholesterol diet (5% cholesterol). After 10 weeks, the animals were sacrificed and the cortex was removed for measurement of Aβ levels. Aβ was assayed by immunoprecipitating cortical homogenates with the Aβ antibody B12, followed by Western blotting with the commercially available Aβ monoclonal antibody 4G8.

## CC[C@H](C)C(=O)O[C@H]1C[C@@H](C)C=C2C=C[C@H](C)[C@H](CC[C@@H]3C[C@@H](O)CC(=O)O3)[C@H]21 [lovastatin]
[1]
  levels of Aβ relative to controls: significantly decreased levels of Aβ

## CC(C)CCC[C@@H](C)[C@H]1CC[C@H]2[C@@H]3CC=C4C[C@@H](O)CC[C@]4(C)[C@H]3CC[C@]12C [cholesterol]
Aβ levels in the brain
  increase in Aβ levels in rat cerebral cortex: about 50%
